Assays:
hyperoxia-induced damage = experiment: Example 5: mice exposed to hyperoxia 48 hours, lung lysate immunoblot; format: in vivo, C57BL/6 mice; details: 20 μM via Alzet pumps
Protocol: C57BL/6 mice were pretreated with DMSO (control) and 20 μM Alda-1 (administered via Alzet pumps), then exposed to hyperoxia for 48 hours. The mice were divided into three groups: Room air, hyperoxia (48 hour)+DMSO, and hyperoxia (48 hour)+Alda-1. The lung tissues were harvested, and lysates evaluated by immunoblot analysis.

[1] = test system: hyperoxia-induced acute lung injury; experiment: Example 4: mice exposed to hyperoxia 48 hours, lung lysate immunoblot and BAL fluid analysis; format: in vivo, C57BL/6 mice; details: 20 mM via alzet pumps
Protocol: C57BL/6 mice were exposed to hyperoxia for 48 hours with DMSO (Control) and Alda-1 (20 mM) via alzet pumps on the dorsal side of mice. The mice were divided into four groups: normoxia+DMSO (room air), normoxia+Alda-1, hyperoxia+DMSO, and hyperoxia+Alda-1. The lungs were harvested and the bronchoalveolar lavage (BAL) fluid was collected and analyzed by immunoblot and cytokine levels.

4HNE = experiment: Oxidative stress assay, 4HNE adduct competitive ELISA on whole cell lysate; format: cell-based, human; details: HMVEC pretreated with 20 μM, hyperoxia 48 hours
Protocol: (§1) HMVEC's were preserved in EGM-2 MV media (Lonza, Wakersville, Md.) and supplemented with FBS (25 ml), Hydrocortisone (0.2 ml), hFGF-B (2.0 ml), VEGF (0.5 ml), R3 IGF-1 (0.5 ml), Ascorbic acid (0.5 ml), hEGF (0.5 ml), GA-1000 (0.5 ml) at 37° C. in a 5% carbon dioxide-humidified incubator to maintain sufficient cell growth. The cultured cells were validated for confluence (around 70%) and exposed to hyperoxia for 48 hours with and without Alda-1.
The samples of whole cell lysate (50 μg) were seeded in each well. Oxidative stress was measured by an oxiselect 4HNE adduct competitive ELISA kit (Cell Biolabs), according to the instructions of kit.

acute lung injury = experiment: Example 6: mice exposed to 100% oxygen 48 hours, BAL fluid, Diff Kwik staining, H&E staining, western blot; format: in vivo, C57BL/6 mice; details: 20 μM via osmotic pumps
Protocol: The C57BL/6 mice were embedded with osmotic pumps and continuously injected with either DMSO or Alda-1 (20 μM), then they were exposed to 100% oxygen 48 hours. The lung samples, as well as Bronchial Alveolar Lavage Fluid, were collected for the evaluation of infiltration of cytokines, inflammation, autophagy, and apoptosis by Diff Kwik staining, H&E staining, and western blot.

[2] = test system: human microvascular endothelial cells (HMVEC); experiment: JC-1 staining, mitochondrial membrane potential; format: cell-based
Protocol: (§2) Cells obtained were human microvascular endothelial cells (HMVECs). Cell culture medium was EBM-2 containing 10% FBS plus antibiotics. Assays were MitoSOX, JC1, Histology, Western blot, and ALDH2 activity. Antibodies used were mouse anti-ALDH2 antibody, Cytochrome C, and Beclin (cell signaling).
(§3) HMVECs were seeded and, after reaching confluence, treated with DMSO and Alda-1. Cells were then exposed to normoxia or hyperoxia at different time points. After 24, 48, and 72 hours, cells were collected for mitochondrial analyses.
HMVEC-L cells were maintained in a EGM-2 (Lonza) media supplemented with FBS (25 ml), Hydrocortisone (0.2 ml), hFGF-B (2.0 ml), VEGF (0.5 ml), R3 IGF-1 (0.5 ml), Ascorbic acid (0.5 ml), hEGF (0.5 ml), GA-1000 (0.5 ml) at 37° C. in a 5% carbon dioxide humidified incubator to maintain a sufficient cell growth. The HMVEC-L cells were plated at density of 1×10,000 cells in a cell view dish with glass bottom (Thomas scientific). When cells attained 70% confluency, they were exposed to hyperoxia for 48 hours with Alda-1 and without Alda-1. Following exposure to hyperoxia, the HMVEC-L cells were washed by HBSS solution (without Ca+ and Mg+) (Gibco). […] The live cell imaging was conducted using fluorescence microscopy (Olympus). The green and red images were captured in fluorescence and images were quantified by image J by red to green ratio.

ALDH2 [3] = biological target: T1, ALDH2 (Homo sapiens, UniProt P05091); experiment: ALDH2 enzymatic activity assay (340 nm) on mitochondrial lysate of HMVEC; format: cell-based
T1 construct: Cells obtained were human microvascular endothelial cells (HMVECs); endogenous in cells; host or cells: HMVEC / HMVEC-L (human lung microvascular endothelial cells)
T1 sequence (P05091 18-517): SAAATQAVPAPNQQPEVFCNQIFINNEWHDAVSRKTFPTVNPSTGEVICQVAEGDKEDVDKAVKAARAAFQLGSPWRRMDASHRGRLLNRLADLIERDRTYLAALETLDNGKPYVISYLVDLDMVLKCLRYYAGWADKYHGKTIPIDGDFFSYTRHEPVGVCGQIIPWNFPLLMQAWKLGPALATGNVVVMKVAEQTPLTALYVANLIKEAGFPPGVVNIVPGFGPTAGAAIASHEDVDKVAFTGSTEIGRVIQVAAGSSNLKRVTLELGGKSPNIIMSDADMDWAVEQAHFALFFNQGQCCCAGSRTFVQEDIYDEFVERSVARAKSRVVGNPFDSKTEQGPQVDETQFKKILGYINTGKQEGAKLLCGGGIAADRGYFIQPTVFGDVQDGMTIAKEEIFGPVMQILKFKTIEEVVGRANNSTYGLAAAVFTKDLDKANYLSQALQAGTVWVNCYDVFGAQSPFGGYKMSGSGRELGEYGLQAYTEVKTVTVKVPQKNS
Protocol: as §2, §3, §1
The enzymatic activity of ALDH2 was measured by transformation of acetaldehyde to acetic acid (Chen et al., 2008). The HMVEC-L cells were cultured as mentioned above, followed by 300 μl of buffer (10 mM DTT, 100 mM Tris-HCl pH 8.0, 20% glycerol, 1% Triton X-100) and centrifuged at 55000 g for 30 minutes at 4° C. […] The specificity of enzyme reaction was expressed as nmol NADH/minute/mg protein.

Bax = experiment: Western blot of whole cell lysate, Bax; format: cell-based, human; details: HMVEC pretreated with 20 μM, hyperoxia 48 hours, normalized to β-actin
Protocol: (§4) The HMVEC-L cells were cultured and after reaching confluence (70%), were exposed to hyperoxia with or without Alda-1 for 48 hours. The concentration was determined by the proOX p100 sensor (Biospherix). After hyperoxia, the cell pellets were collected by centrifugation and the cell pellets were suspended in lysis buffer (20 mM Tris HCL, pH7.4, 150 mM Nacl, 0.5% Triton-x 100) and the supernatant was collected after centrifugation at high speed (14000 g) for 15 minutes at 4° C. The amount of protein was calculated by BCA assay kit (Pierce, Rockford, Ill.). Equivalent amount of protein (15 μg) subjected to SDS-PAGE using between 4-20% tris-glycine gel (Bio-rad) after which electro transfer with PVDF membrane was performed, followed by blocking in 5% skim milk with washes with TBST. The membranes were treated with primary and secondary antibodies. The bands were developed by pierce EC1 (Thermo Fischer scientific) and films with protein bands were scanned and analyzed densitometrically by NIH ImageJ software. The ratio of protein to loading control was taken and analyzed in percentages.

[4] = test system: human microvascular endothelial cells (HMVECs); experiment: MitoSOX mitochondrial ROS production; format: cell-based; details: Example 1
Protocol: as §2, §3

ALDH2 [5] = experiment: Western blot of whole cell lysate, ALDH2 expression; format: cell-based, human; details: HMVEC pretreated with 20 μM, hyperoxia 48 hours, normalized to β-actin
Protocol: as §4

cytochrome C = experiment: Western blot of whole cell lysate, cytochrome C; format: cell-based, human
Protocol: as §2, §3
as §4, with “Equivalent amount of protein (15 μg) subjected to SDS-PAGE using between 4-20% tris-glycine gel (Bio-rad) after which electro transfer with PVDF membrane was performed, followed by blocking in 5% skim milk with washes with TBST. The membranes were treated with primary and secondary antibodies.” left out

[6] = HMVECs, Example 1, hyperoxia, 24 and 48 hours

O=C(NCc1ccc2c(c1)OCO2)c1c(Cl)cccc1Cl [Alda-1, N-(1,3-Benzodioxol-5-ylmethyl)-2,6-dichlorobenzamid]
PTEN-induced kinase 1 (PINK1) level vs hyperoxic controls (hyperoxia-induced damage): decrease
mitofusin 1 (MFN1) level in lung lysates vs hyperoxia only (hyperoxia-induced damage): decreased levels
mitofusin 2 (MFN2) level in lung lysates vs hyperoxia only (hyperoxia-induced damage): decreased levels
Drp1 level in lung lysate vs DMSO [1]: decreased levels
OPA1 level in lung lysate vs DMSO [1]: decreased levels
infiltration of macrophages in BAL fluid vs DMSO [1]: less infiltration
decrease in 4HNE accumulation compared to untreated HMVEC exposed to hyperoxia (4HNE): 26%
LC3B (western blot) (acute lung injury): reduced
NF-κB-p65 (western blot) (acute lung injury): reduced
autophagy (acute lung injury): decrease
cytochrome C release (western blot) (acute lung injury): reduced
cytokine and neutrophil infiltration and inflammation, DMSO mice vs Alda-1 mice (acute lung injury): more cytokine and neutrophil infiltration and elevated inflammation than mice treated with Alda-1
inflammation (acute lung injury): decrease
oxidative stress (acute lung injury): decrease
increase in mitochondrial membrane potential (JC-1 red to green ratio) compared to hyperoxia without treatment ([2]; HMVEC, 20 μM, hyperoxia 48 hours): 1.62 fold
mitochondrial membrane potential [2, 6]: rescued
increase in ALDH2 activity compared to hyperoxia without pretreatment (ALDH2 [3]; HMVEC mitochondrial extract, 20 μM, hyperoxia 48 hours): 45%
ALDH2 activity (ALDH2 [3]; HMVECs, Example 1, during both normoxia and hyperoxia): elevated
decrease in Bax compared to hyperoxia without pretreatment (Bax): 25%
mitochondrial ROS production [4]: suppressed
effect on ALDH2 expression in hyperoxia (ALDH2 [5]): no effect
decrease in cytochrome C compared to hyperoxia without pretreatment (cytochrome C; HMVEC pretreated with 20 μM, hyperoxia 48 hours, normalized to β-actin): 64%
Cytochrome C release (cytochrome C; [6]): decreased
